Literature values in US8759098B2, “Method for cloning pluripotent stem cells” (Boston Biomedical Research Institute, Inc., priority 2009, dated 2014).

System: somatic cells
Details: low oxygen conditions; Page et al. 2009; cited from earlier work

## FGF2: fibroblast growth factor 2
  expression of pluripotency inducing genes: increased
